Results reported in patent US20090226427A1, “NOVEL PHARMACEUTICAL COMPOSITIONS FOR MODULATING ANGIOGENESIS” (priority 1999, published 2009).

Assays:
[1] = test system: phospho-GSK-3; assay: phospho-GSK-3 immunoblot, insulin-stimulated cardiac myocytes; type: cell-based; settings: neonatal mouse cardiac myocytes
Method: (§3) Cell Culture was performed as follows: Freshly isolated human umbilical vein EC (HUVEC) were cultured to confluence in 100-mm dishes in a 2:1 mixture of M199/endothelial cell basal medium containing 10% serum; control experiments were also performed with myocytes isolated from neonatal mice as previously detailed (Feron, et al. (1998) J. Biol. Chem. 273, 30249-30254) and plated at 5×10^5 cells/ml. Serum-starved EC and myocytes were exposed for the indicated periods of time to VEGF (50 ng/ml) and insulin (12.5 milliunits/ml), respectively, in the presence or absence of various pharmacological modulators (30-60 min preincubation with 1 μg/ml geldanamycin (Invitrogen Life Technolo-gies) or 10 μM LY294002 (Sigma)).
(§4) Accordingly, neonatal mouse cardiac myocytes were exposed to insulin (a known activator of Akt in myocytes) for 5 min with or without geldanamycin and examined the phosphorylation status of Akt and eNOS. […] Myocytes show native expression of GSK-3 and were used to determine whether geldanamycin could influence the phosphorylation of this other Akt substrate.

[2] = test system: phospho-Akt; assay: phospho-Akt immunoblot, insulin-stimulated cardiac myocytes; type: cell-based; settings: neonatal mouse cardiac myocytes
Method: as §3, §4

[3] = test system: phospho-eNOS; assay: phospho-eNOS immunoblot, insulin-stimulated cardiac myocytes; type: cell-based; settings: neonatal mouse cardiac myocytes
Method: as §3, §4

[4] = test system: phospho-Akt/eNOS interaction; assay: eNOS/phospho-Akt co-immunoprecipitation, statin-exposed HUVECs
[5] = test system: caveolin; assay: caveolin immunoblot, AECs; type: cell-based, Bovine
From the text: (§1) Therefore, the effects of statin exposure on the absolute amounts of caveolin in AoECs and CMECs was examined.

[6] = test system: eNOS/hsp90 interaction; assay: eNOS/hsp90 co-immunoprecipitation, statin-exposed HUVECs
[7] = test system: phospho-Ser1177-eNOS; assay: phospho-Ser1177-eNOS immunoblot, statin-exposed HUVECs
[8] = test system: caveolin; assay: caveolin immunoblot, AoECs; type: cell-based, rat
From the text: as §1

[9] = test system: CMECs; assay: angiogenesis assay on Matrigel, CMECs; type: cell-based, Mouse
Method: (§2) Tube formation was observed using an inverted phase-contrast microscope (Zeiss Axiovert 25), and images were captured with a videographic system (Pixera Pro). The tube formation index was determined by measuring the length of tubes in random fields from each well using the Image J program. Statistical analyses were made using the Student t test or one-way ANOVA where appropriate.

[10] = test system: endothelial cells; assay: sandwich Matrigel model of endothelial tube formation; type: cell-based; settings: non-transfected cells
Method: Indeed, while endothelial cells culture leads to pavimentous organization when plated on dishes (FIG. 1A), endothelial cells progressively form tubes when cultured within gels of collagen, fibrin or Matrigel®. Accordingly, in the “3-D model”, endothelial cells are mixed to the matrix before gelification and tube-like structures are obtained after 48-72 hours (FIG. 1B); this model, however, reduces the efficiency of transfection. In the “sandwich model”, cells are first cultured to confluence on a first layer of matrix, and are then covered by a second matrix layer; cells are easily transfected in the interval preceding the addition of the upper layer. The latter technique allows the formation of endothelial tubes in 3-6 hours; the tube structures are mature 12 hours after induction (FIG. 1C) and then start to regress.
Of note, when endothelial cells were transfected with an irrelevant construct (β-galactosidase-encoding), no change in the rate and extent of tube formation was observed.

[11] = test system: caveolin/eNOS interaction; settings: CMECs; P>0.1, n=3
Method: (§5) In some experiments, ECs were recovered from Matrigel after a 5-minute incubation with 50 mg/mL collagenase under constant agitation, followed by two sequences of washing/centrifugation (2000 rpm for 5 minutes at 4° C.).

[12] = test system: caveolin/eNOS interaction; assay: caveolin/eNOS co-immunoprecipitation, AoECs; type: cell-based, rat
Method: as §5

[13] = test system: hsp90; assay: hsp90 tyrosine phosphorylation, HUVECs; type: cell-based, human
[14] = test system: caveolin; assay: caveolin immunoblot, CMECs; type: cell-based, Mouse; settings: 3-hour exposure of CMECs
From the text: as §1

[15] = test system: AoECs; assay: aortic ring culture in Matrigel, AoEC network organization; type: cell-based, rat
Method: as §2, with “Cultures of AoECs and CoMECs organized in a network were then challenged at day 5 by incubation under serum-free conditions for 24 to 48 hours with or without some of the drugs mentioned above. […] Tube” for “Tube”

[16] = test system: Akt/hsp90 interaction; assay: Akt/hsp90 co-immunoprecipitation, statin-exposed HUVECs; type: cell-based, human; settings: 5-minute exposure
[17] = test system: HUVECs; assay: angiogenesis assay on Matrigel, HUVECs; type: cell-based, human; settings: HUVECs; 0.1 μmol/L
Method: as §2
Transfection and peptide loading was performed by reversible permeabilization: HUVECs were transfected with the hsp90 cDNA (a gift from Dr W. C. Sessa, Yale University, New Haven, Conn.) using Lipofectamine (Invitrogen) according to the manufacturer's protocol; an irrelevant plasmid encoding β-galactosidase was used as a control to obtain identical amounts of transfected DNA in each condition. HUVECs were also reversibly permeabilized, as previously reported (Feron et al. J Biol. Chem. 1998; 273:30249-30254), to introduce synthetic peptides derived from the caveolin scaffolding domain (CSD).

[18] = test system: phospho-eNOS; assay: phospho-eNOS immunoblot and hsp90/eNOS interaction, AoECs; type: cell-based, rat
[19] = test system: phospho-Ser1177-eNOS; assay: phospho-Ser1177 eNOS immunoblot, CMECs; type: cell-based, Mouse
From the text: The modulation of eNOS phosphorylation by statins was examined using anti-phospho-Ser1177 eNOS antibodies.

[20] = test system: phospho-Ser473-Akt; assay: phospho-Ser473-Akt immunoblot, statin-exposed HUVECs; settings: 5-minute incubation
[21] = test system: caveolin; assay: caveolin immunoblot, CoMECs; type: cell-based, human; settings: microvascular outgrowing CoMECs
From the text: as §1

[22] = test system: TLT cells (hepatocarcioma); assay: TLT tumor mouse model, tumor volume; type: in vivo, mice; settings: immunological detection of HA tag in tumor endothelial cells
From the text: Hepatocarcinoma cells are able to grow as a tumor after injection in the leg of mice is dependent on the ability of endothelial cells to develop new vessels to “feed” the tumor. This vessel development depends on the capacity of endothelial cells to produce NO through eNOS activation in these cells, itself regulated by the post-translational modulators it was previously identified in the in vitro experiments, e.g. caveolin-1.
Tumor mouse model: 30-40 g male NMRI mice received an IP injection of TLT cells (hepatocarcioma). Ascite cells were recovered in physiological serum and IM-injected in the posterior left leg of ketamine/xylazin anesthetized mice. Tumors grew for 9-12 days to reach 8±1 mm of diameter, the original diameter for treatment (caveolin plasmid injection) at day 0.
The effect of injection of plasmids encoding caveolin-1 has been evaluated on the volume of the growing tumor after tumor implantation in the leg (FIG. 2). Caveolin-encoding plasmids were injected either intravenously or directly in the tumor. The working hypothesis was that heterologous over-expression of caveolin-1 in endothelial cells will inhibit eNOS activation in endothelial cells, with a subsequent inhibition of angiogenesis that will result in a decrease in tumor growth.

insulin: a known activator of Akt in myocytes
GSK-3 phosphorylation [1]: stimulatory effect | Akt phosphorylation [2]: stimulatory effect | eNOS phosphorylation [3]: stimulatory effect

CC(O)(CCO)CC(=O)O (stereo not drawn) [mevalonate]
effect on phospho-Akt/eNOS interaction upon statin ([4]; co-IP): reverse the stimulatory effect | effect on statin-induced reduction in caveolin abundance ([5]; AECs, culture medium supplemented with mevalonate): blocked the statin-induced reduction in caveolin abundance | effect on atorvastatin-stimulated eNOS/hsp90 interaction ([6]; mevalonate 1 mmol/L, BAPTA-AM 20 μmol/L, CSD peptide loading): reverse the stimulatory effect | effect on statin-induced phosphorylation of eNOS ([7]; atorvastatin 1 μmol/L, LY294002 10 μmol/L, geldanamycin 1 μg/mL, mevalonate 1 mmol/L, BAPTA-AM 20 μmol/L, CSD peptide loading): reverse the stimulatory effect | effect on statin-induced reduction in caveolin abundance ([8]; AoECs, culture medium supplemented with mevalonate): blocked the statin-induced reduction in caveolin abundance

CC(C)c1c(C(=O)Nc2ccccc2)c(-c2ccccc2)c(-c2ccc(F)cc2)n1CC[C@@H](O)C[C@@H](O)CC(=O)O [atorvastatin]
time of maximal proangiogenic effect ([9]; CMECs on Matrigel): 3 h | formation of capillary-like structures on Matrigel ([9]; freshly isolated CMECs, atorvastatin 1 _mol/L): rapidly led to the formation of capillary-like structures | endothelial tube formation [10]: accelerated the endothelial tube formation | time to maximum of the Akt-hsp90-eNOS mutual interaction [4]: 1 to 2 h | association of Akt with eNOS ([4]; 5-minute exposure): insufficient to promote the association of Akt with eNOS | caveolin abundance ([5]; isolated aortic ECs after statin treatment): significant decrease in caveolin abundance | amount of caveolin immunoprecipitated by eNOS antibodies [11]: not significantly altered | eNOS found in the caveolin immunoprecipitate ([12]; AoECs exposed to atorvastatin for 5 days, n=6, 44+/−8% without statin): 8+/−5% | change in amount of caveolin immunoprecipitated by eNOS antibodies ([12]; atorvastatin-treated AoECs, P<0.01, n=3): −73+/−7% | tyrosine phosphorylation of hsp90 [13]: rapidly and dose-dependently induced | abundance of caveolin [14]: did not alter | serum-driven formation of the AoEC network ([15]; atorvastatin present during 5 to 7 days of cell growth): did not significantly influence | network organization after serum deprivation ([15]; statin pretreatment, then deprived of serum for 48 hours): dramatically stabilized the network organization | interaction of hsp90 with eNOS ([6]; 5-minute exposure): sufficient to promote the interaction of hsp90 with both Akt and eNOS | eNOS phosphorylation ([7]; 5-minute incubation): did not promote eNOS phosphorylation | eNOS phosphorylation ([7]; 30 minutes exposure): produced eNOS phosphorylation | interaction of hsp90 with Akt [16]: sufficient to promote the interaction of hsp90 with both Akt and eNOS | tube formation [17]: stimulated tube formation | phosphorylation of eNOS ([18]; AoECs, 5-day treatment then 48-hour period in the absence of atorvastatin): no effect | amounts of phospho-eNOS and hsp90/eNOS interaction ([18]; uninterrupted exposure of outgrowing AoECs (or isolated AECs)): significant increase | eNOS phosphorylation (Ser1177) [19]: did produce eNOS phosphorylation | Akt phosphorylation [20]: sufficient to induce Akt phosphorylation | reduction of the AoEC pool of caveolin ([8]; n=3, P<0.01): 26+/−5% | caveolin expression [21]: did not any alteration in caveolin expression

B1: recombinant (HA-tagged-) caveolin: recombinant caveolin-1 tagged with hemagglutinin antigen, expressed from the injected plasmid (protein, UniProt Q03135 2-178, looked up)
Caveolin-1: SGGKYVDSEGHLYTVPIREQGNIYKPNNKAMADELSEKQVYDAHTKEIDLVNRDPKHLNDDVVKIDFEDVIAEPEGTHSFDGIWKASFTTFTVTKYWFYRLLSALFGIPMALIWGIYFAILSFLHIWAVVPCIKSFLIEIQCISRVYSIYVHTVCDPLFEAVGKIFSNVRINLQKEI
modifications: HA tag
notes: recombinant caveolin-1 tagged with hemagglutinin antigen, expressed from the injected plasmid
extent of recombinant caveolin expression in relation to tumor volume [22]: inversely correlated to the tumor volume
